According to the NIST ThermoML archive (doi:10.1016/j.fluid.2007.06.019):
Where “and” joins values, the source holds several entries; their conditions need not be identical. Identical values can stand only once.

Details: Liquid, Alternating current cell with electrodes

CCCCCCCC[n+]1ccn(C)c1.F[B-](F)(F)F [1-methyl-3-octylimidazolium tetrafluoroborate]
Details | electrical conductivity
273.23 K, 101.33 kPa | 0.00961 S/m
273.37 K, 101.33 kPa | 0.00973 S/m and 0.00997 S/m
278.15 K, 101.33 kPa | 0.0144 S/m and 0.0148 S/m
283.15 K, 101.33 kPa | 0.0211 S/m and 0.0218 S/m and 0.0212 S/m
288.15 K, 101.33 kPa | 0.0303 S/m and 0.0305 S/m
288.16 K, 101.33 kPa | 0.0312 S/m
293.15 K, 101.33 kPa | 0.0435 S/m and 0.0423 S/m
293.16 K, 101.33 kPa | 0.0427 S/m
298.15 K, 100 kPa | 0.0587 S/m
298.15 K, 101.33 kPa | 0.0584 S/m [middle of 5 runs]
298.15 K, 24500 kPa | 0.0441 S/m
298.15 K, 49500 kPa | 0.0333 S/m
298.15 K, 73500 kPa | 0.0257 S/m
298.15 K, 98400 kPa | 0.0197 S/m
298.15 K, 122900 kPa | 0.0152 S/m
298.15 K, 147100 kPa | 0.012 S/m
298.15 K, 171600 kPa | 0.00941 S/m
298.15 K, 196100 kPa | 0.00742 S/m
298.16 K, 101.33 kPa | 0.058 S/m
303.15 K, 101.33 kPa | 0.076 S/m and 0.0794 S/m and 0.0775 S/m
308.15 K, 101.33 kPa | 0.0992 S/m and 0.104 S/m and 0.102 S/m
313.15 K, 101.33 kPa | 0.127 S/m and 0.131 S/m and 0.132 S/m
318.15 K, 101.33 kPa | 0.16 S/m and 0.165 S/m and 0.167 S/m
323.11 K, 101.33 kPa | 0.198 S/m and 0.205 S/m
323.13 K, 101.33 kPa | 0.2 S/m
323.15 K, 100 kPa | 0.203 S/m
323.15 K, 24500 kPa | 0.162 S/m
323.15 K, 49300 kPa | 0.13 S/m
323.15 K, 73500 kPa | 0.106 S/m
323.15 K, 98100 kPa | 0.0853 S/m
323.15 K, 122600 kPa | 0.0695 S/m
323.15 K, 147600 kPa | 0.0567 S/m
323.15 K, 171600 kPa | 0.0468 S/m
323.15 K, 196100 kPa | 0.0386 S/m
328.15 K, 101.33 kPa | 0.244 S/m and 0.252 S/m
328.19 K, 101.33 kPa | 0.246 S/m
333.11 K, 101.33 kPa | 0.304 S/m
333.12 K, 101.33 kPa | 0.294 S/m
333.16 K, 101.33 kPa | 0.298 S/m
338.12 K, 101.33 kPa | 0.355 S/m
338.2 K, 101.33 kPa | 0.353 S/m and 0.364 S/m
343.16 K, 101.33 kPa | 0.42 S/m
343.2 K, 101.33 kPa | 0.416 S/m and 0.43 S/m
348.15 K, 100 kPa | 0.486 S/m
348.15 K, 24500 kPa | 0.406 S/m
348.15 K, 49000 kPa | 0.339 S/m
348.15 K, 73500 kPa | 0.287 S/m
348.15 K, 98400 kPa | 0.242 S/m
348.15 K, 122600 kPa | 0.206 S/m
348.15 K, 147100 kPa | 0.175 S/m
348.15 K, 171600 kPa | 0.149 S/m
348.15 K, 196100 kPa | 0.128 S/m
348.16 K, 101.33 kPa | 0.485 S/m
348.17 K, 101.33 kPa | 0.502 S/m
348.24 K, 101.33 kPa | 0.494 S/m
353.15 K, 101.33 kPa | 0.561 S/m and 0.581 S/m
353.21 K, 101.33 kPa | 0.572 S/m

CCCCCCCC[n+]1ccn(C)c1.F[P-](F)(F)(F)(F)F [1-octyl-3-methylimidazolium hexafluorophosphate]
Details | electrical conductivity
273.2 K, 101.33 kPa | 0.00325 S/m
273.22 K, 101.33 kPa | 0.00331 S/m
278.15 K, 101.33 kPa | 0.0053 S/m and 0.0052 S/m
283.15 K, 101.33 kPa | 0.00823 S/m and 0.00822 S/m and 0.00807 S/m
288.15 K, 101.33 kPa | 0.0121 S/m
288.16 K, 101.33 kPa | 0.0124 S/m
293.15 K, 101.33 kPa | 0.0181 S/m and 0.0182 S/m and 0.0177 S/m
298.15 K, 100 kPa | 0.0263 S/m
298.15 K, 101.33 kPa | 0.0257 S/m [middle of 4 runs]
298.15 K, 19600 kPa | 0.0202 S/m
298.15 K, 39200 kPa | 0.0154 S/m
298.15 K, 49500 kPa | 0.0134 S/m
298.15 K, 59100 kPa | 0.0117 S/m
298.15 K, 78500 kPa | 0.00918 S/m
298.15 K, 98100 kPa | 0.00712 S/m
303.15 K, 101.33 kPa | 0.036 S/m and 0.0353 S/m and 0.0358 S/m
308.15 K, 101.33 kPa | 0.0479 S/m and 0.048 S/m
308.16 K, 101.33 kPa | 0.0493 S/m and 0.0489 S/m
313.15 K, 101.33 kPa | 0.0655 S/m and 0.0653 S/m
313.16 K, 101.33 kPa | 0.0659 S/m and 0.0654 S/m
318.15 K, 101.33 kPa | 0.0863 S/m [middle of 4 runs]
323.11 K, 101.33 kPa | 0.108 S/m
323.13 K, 101.33 kPa | 0.11 S/m
323.15 K, 100 kPa | 0.107 S/m
323.15 K, 101.33 kPa | 0.111 S/m
323.15 K, 24200 kPa | 0.0814 S/m
323.15 K, 49000 kPa | 0.0625 S/m
323.15 K, 73500 kPa | 0.0483 S/m
323.15 K, 98100 kPa | 0.0375 S/m
323.15 K, 122600 kPa | 0.0292 S/m
323.15 K, 147100 kPa | 0.0229 S/m
323.15 K, 171300 kPa | 0.0181 S/m
323.15 K, 196100 kPa | 0.0143 S/m
328.11 K, 101.33 kPa | 0.142 S/m
328.12 K, 101.33 kPa | 0.141 S/m
328.13 K, 101.33 kPa | 0.136 S/m and 0.137 S/m
333.11 K, 101.33 kPa | 0.17 S/m
333.19 K, 101.33 kPa | 0.173 S/m
338.18 K, 101.33 kPa | 0.209 S/m and 0.21 S/m
343.16 K, 101.33 kPa | 0.254 S/m
343.17 K, 101.33 kPa | 0.253 S/m
348.15 K, 100 kPa | 0.29 S/m
348.15 K, 24500 kPa | 0.233 S/m
348.15 K, 49300 kPa | 0.188 S/m
348.15 K, 73500 kPa | 0.152 S/m
348.15 K, 98100 kPa | 0.124 S/m
348.15 K, 122600 kPa | 0.101 S/m
348.15 K, 147100 kPa | 0.083 S/m
348.15 K, 171600 kPa | 0.0681 S/m
348.15 K, 195800 kPa | 0.0562 S/m
348.17 K, 101.33 kPa | 0.304 S/m
348.18 K, 101.33 kPa | 0.303 S/m
353.17 K, 101.33 kPa | 0.358 S/m and 0.36 S/m
